Assay results taken from the supplement of paper PMC10307832.

Columns and labels:
[1] = compound: C=CCn1c(=O)c2cnc(Nc3ccc(N4CCN(C)CC4)cc3)nc2n1-c1cccc(C(C)(C)O)n1 [Adavosertib] + CC(=O)Nc1cccc(-n2c(=O)n(C3CC3)c(=O)c3c(Nc4ccc(I)cc4F)n(C)c(=O)c(C)c32)c1 [Trametinib] (partner 0.02 µM); assay: relative viability (nuclei count vs DMSO), 5 days (fraction); higher = more cells survive
Outline: (§1)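 Lung cancer cell lines, seeded in 1536-well plates, were treated the following day by pin tool with a single drug or with five library-drug doses (not always all listed) in √10 steps on top of a fixed anchor-drug dose. Cells were fixed and nuclei stained in one step after 5 days, and nuclei were counted. Relative viability is the nuclei count for treated wells divided by that for vehicle wells, reported as medians of duplicate plates.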

[2] = compound: COc1nc(N)nc2c1ncn2[C@@H]1O[C@H](CO)[C@@H](O)[C@@H]1O [Nelarabine] + Cc1nc(Nc2ncc(C(=O)Nc3c(C)cccc3Cl)s2)cc(N2CCN(CCO)CC2)n1 [Dasatinib] (partner 0.075 µM); assay: as above
Outline: as §1

HCC-15
relative viability ([1]; first compound 0.01 µM): 0.399 | relative viability ([1]; first compound 0.03162 µM): 0.402 | relative viability ([1]; first compound 0.1 µM): 0.377 | relative viability ([1]; first compound 0.3162 µM): 0.379 | relative viability ([2]; first compound 0.01 µM): 0.568 | relative viability ([2]; first compound 0.03162 µM): 0.554 | relative viability ([2]; first compound 0.1 µM): 0.523 | relative viability ([2]; first compound 0.3162 µM): 0.639 | relative viability ([2]; first compound 1 µM): 0.67

EKVX
relative viability ([1]; first compound 0.01 µM): 0.327 | relative viability ([1]; first compound 0.03162 µM): 0.34 | relative viability ([1]; first compound 0.1 µM): 0.377 | relative viability ([1]; first compound 0.3162 µM): 0.401 | relative viability ([2]; first compound 0.01 µM): 0.509 | relative viability ([2]; first compound 0.03162 µM): 0.468 | relative viability ([2]; first compound 0.1 µM): 0.396 | relative viability ([2]; first compound 0.3162 µM): 0.575 | relative viability ([2]; first compound 1 µM): 0.608

NCI-H2347
relative viability ([1]; first compound 0.01 µM): 0.287 | relative viability ([1]; first compound 0.03162 µM): 0.327 | relative viability ([1]; first compound 0.1 µM): 0.323 | relative viability ([1]; first compound 0.3162 µM): 0.285 | relative viability ([2]; first compound 0.01 µM): 0.328 | relative viability ([2]; first compound 0.03162 µM): 0.306 | relative viability ([2]; first compound 0.1 µM): 0.252 | relative viability ([2]; first compound 0.3162 µM): 0.289 | relative viability ([2]; first compound 1 µM): 0.308

NCI-H1944
relative viability ([1]; first compound 0.01 µM): 0.376 | relative viability ([1]; first compound 0.03162 µM): 0.377 | relative viability ([1]; first compound 0.1 µM): 0.378 | relative viability ([1]; first compound 0.3162 µM): 0.372 | relative viability ([2]; first compound 0.01 µM): 0.211 | relative viability ([2]; first compound 0.03162 µM): 0.213 | relative viability ([2]; first compound 0.1 µM): 0.196 | relative viability ([2]; first compound 0.3162 µM): 0.185 | relative viability ([2]; first compound 1 µM): 0.194

NCI-H1395
relative viability ([1]; first compound 0.01 µM): 1.06 | relative viability ([1]; first compound 0.03162 µM): 1.12 | relative viability ([1]; first compound 0.1 µM): 1.08 | relative viability ([1]; first compound 0.3162 µM): 0.864 | relative viability ([2]; first compound 0.01 µM): 0.418 | relative viability ([2]; first compound 0.03162 µM): 0.39 | relative viability ([2]; first compound 0.1 µM): 0.413 | relative viability ([2]; first compound 0.3162 µM): 0.408 | relative viability ([2]; first compound 1 µM): 0.408

SK-MES-1
relative viability ([1]; first compound 0.01 µM): 0.556 | relative viability ([1]; first compound 0.03162 µM): 0.576 | relative viability ([1]; first compound 0.1 µM): 0.529 | relative viability ([1]; first compound 0.3162 µM): 0.486 | relative viability ([2]; first compound 0.01 µM): 0.385 | relative viability ([2]; first compound 0.03162 µM): 0.263 | relative viability ([2]; first compound 0.1 µM): 0.172 | relative viability ([2]; first compound 0.3162 µM): 0.324 | relative viability ([2]; first compound 1 µM): 0.301

ChaGo-K-1
relative viability ([1]; first compound 0.01 µM): 0.884 | relative viability ([1]; first compound 0.03162 µM): 0.844 | relative viability ([1]; first compound 0.1 µM): 0.901 | relative viability ([1]; first compound 0.3162 µM): 0.883 | relative viability ([2]; first compound 0.01 µM): 0.624 | relative viability ([2]; first compound 0.03162 µM): 0.515 | relative viability ([2]; first compound 0.1 µM): 0.533 | relative viability ([2]; first compound 0.3162 µM): 0.707 | relative viability ([2]; first compound 1 µM): 0.568

NCI-H1792
relative viability ([1]; first compound 0.01 µM): 0.378 | relative viability ([1]; first compound 0.03162 µM): 0.505 | relative viability ([1]; first compound 0.1 µM): 0.448 | relative viability ([1]; first compound 0.3162 µM): 0.42 | relative viability ([2]; first compound 0.03162 µM): 0.876 | relative viability ([2]; first compound 0.1 µM): 0.627 | relative viability ([2]; first compound 0.3162 µM): 0.95 | relative viability ([2]; first compound 1 µM): 0.846

NCI-H596
relative viability ([1]; first compound 0.01 µM): 0.81 | relative viability ([1]; first compound 0.03162 µM): 0.79 | relative viability ([1]; first compound 0.1 µM): 0.678 | relative viability ([1]; first compound 0.3162 µM): 0.796 | relative viability ([2]; first compound 0.01 µM): 0.752 | relative viability ([2]; first compound 0.03162 µM): 0.571 | relative viability ([2]; first compound 0.1 µM): 0.488 | relative viability ([2]; first compound 0.3162 µM): 0.581 | relative viability ([2]; first compound 1 µM): 0.666

NCI-H3122
relative viability ([1]; first compound 0.01 µM): 0.201 | relative viability ([1]; first compound 0.03162 µM): 0.198 | relative viability ([1]; first compound 0.1 µM): 0.272 | relative viability ([1]; first compound 0.3162 µM): 0.227 | relative viability ([2]; first compound 0.01 µM): 1.08 | relative viability ([2]; first compound 0.03162 µM): 0.661 | relative viability ([2]; first compound 0.3162 µM): 0.81 | relative viability ([2]; first compound 1 µM): 0.948

LXF-289
relative viability ([1]; first compound 0.01 µM): 0.746 | relative viability ([1]; first compound 0.03162 µM): 0.696 | relative viability ([1]; first compound 0.1 µM): 0.701 | relative viability ([1]; first compound 0.3162 µM): 0.678 | relative viability ([2]; first compound 0.01 µM): 0.156 | relative viability ([2]; first compound 0.03162 µM): 0.218 | relative viability ([2]; first compound 0.1 µM): 0.146 | relative viability ([2]; first compound 0.3162 µM): 0.202 | relative viability ([2]; first compound 1 µM): 0.196

NCI-H2126
relative viability ([1]; first compound 0.01 µM): 0.571 | relative viability ([1]; first compound 0.03162 µM): 0.528 | relative viability ([1]; first compound 0.1 µM): 0.619 | relative viability ([1]; first compound 0.3162 µM): 0.619 | relative viability ([2]; first compound 0.01 µM): 0.701 | relative viability ([2]; first compound 0.03162 µM): 0.55 | relative viability ([2]; first compound 0.1 µM): 0.43 | relative viability ([2]; first compound 0.3162 µM): 0.692 | relative viability ([2]; first compound 1 µM): 0.639

NCI-H1623
relative viability ([2]; first compound 0.01 µM): 0.525 | relative viability ([2]; first compound 0.03162 µM): 0.563 | relative viability ([2]; first compound 0.1 µM): 0.51 | relative viability ([2]; first compound 0.3162 µM): 0.559 | relative viability ([2]; first compound 1 µM): 0.517

HOP-62
relative viability ([1]; first compound 0.01 µM): 0.357 | relative viability ([1]; first compound 0.03162 µM): 0.406 | relative viability ([1]; first compound 0.1 µM): 0.356 | relative viability ([1]; first compound 0.3162 µM): 0.384 | relative viability ([2]; first compound 0.01 µM): 0.635 | relative viability ([2]; first compound 0.03162 µM): 0.636 | relative viability ([2]; first compound 0.1 µM): 0.395 | relative viability ([2]; first compound 0.3162 µM): 0.764 | relative viability ([2]; first compound 1 µM): 0.738

NCI-H1648
relative viability ([1]; first compound 0.01 µM): 0.536 | relative viability ([1]; first compound 0.03162 µM): 0.473 | relative viability ([1]; first compound 0.1 µM): 0.594 | relative viability ([1]; first compound 0.3162 µM): 0.448

NCI-H647
relative viability ([1]; first compound 0.01 µM): 0.561 | relative viability ([1]; first compound 0.03162 µM): 0.432 | relative viability ([1]; first compound 0.1 µM): 0.428 | relative viability ([1]; first compound 0.3162 µM): 0.415 | relative viability ([2]; first compound 0.01 µM): 0.152 | relative viability ([2]; first compound 0.03162 µM): 0.252 | relative viability ([2]; first compound 0.1 µM): 0.136 | relative viability ([2]; first compound 0.3162 µM): 0.183 | relative viability ([2]; first compound 1 µM): 0.261

NCI-H2170
relative viability ([1]; first compound 0.01 µM): 0.946 | relative viability ([1]; first compound 0.03162 µM): 0.972 | relative viability ([1]; first compound 0.1 µM): 0.831 | relative viability ([1]; first compound 0.3162 µM): 0.745 | relative viability ([2]; first compound 0.01 µM): 0.61 | relative viability ([2]; first compound 0.03162 µM): 0.608 | relative viability ([2]; first compound 0.1 µM): 0.491 | relative viability ([2]; first compound 0.3162 µM): 0.697 | relative viability ([2]; first compound 1 µM): 0.614

NCI-H1793
relative viability ([1]; first compound 0.01 µM): 0.44 | relative viability ([1]; first compound 0.03162 µM): 0.421 | relative viability ([1]; first compound 0.1 µM): 0.501 | relative viability ([1]; first compound 0.3162 µM): 0.395 | relative viability ([2]; first compound 0.01 µM): 0.458 | relative viability ([2]; first compound 0.03162 µM): 0.398 | relative viability ([2]; first compound 0.1 µM): 0.416 | relative viability ([2]; first compound 0.3162 µM): 0.426 | relative viability ([2]; first compound 1 µM): 0.409

NCI-H2023
relative viability ([1]; first compound 0.01 µM): 0.575 | relative viability ([1]; first compound 0.03162 µM): 0.521 | relative viability ([1]; first compound 0.1 µM): 0.62 | relative viability ([1]; first compound 0.3162 µM): 0.267 | relative viability ([2]; first compound 0.01 µM): 0.825 | relative viability ([2]; first compound 0.03162 µM): 0.59 | relative viability ([2]; first compound 0.1 µM): 0.382 | relative viability ([2]; first compound 0.3162 µM): 0.62 | relative viability ([2]; first compound 1 µM): 0.66
